From patent US20070004735A1, “Method for inhibiting the replication of herpes viruses” (priority 2003, published 2007)

How the values were obtained:
wild-type HCMV AD169 = experiment: Susceptibility (IC50) of HCMV AD169 wild-type; type: cell-based, Human cytomegalovirus; conditions: Human betaherpesvirus 5, NHDF cells, read-out: IC 50, Wild-type
Description: (§1) The test compounds are employed as 50 millimolar (mM) solutions in dimethyl sulfoxide (DMSO). Ganciclovir®, Foscarnet® and Cidofovir® are used as reference compounds. After addition of in each case 2 μl of the 50, 5, 0.5 and 0.05 mM DMSO stock solutions to 98 μl portions of cell culture medium in row 2 A-H for duplicate determinations, 1:2 dilutions are carried out with 50 μl portions of medium up to row 11 of the 96-well plate. The wells in rows 1 and 12 each contain 50 μl of medium. 150 μl of a suspension of 1×10^4 cells (human prepuce fibroblasts [NHDF]) are then pipetted into each of the wells (row 1=cell control) and, in rows 2-12, a mixture of HCMV-infected and uninfected NHDF cells (M.O.I.=0.001-0.002), i.e. 1-2 infected cells per 1000 uninfected cells. Row 12 (without substance) serves as virus control. The final test concentrations are 250-0.0005 μM. The plates are incubated at 37° C./5% CO2 for 6 days, i.e. until all the cells are infected in the virus controls (100% cytopathogenic effect [CPE]). The wells are then fixed and stained by adding a mixture of formalin and Giemsa's dye (30 minutes), washed with double-distilled water and dried in a drying oven at 50° C. The plates are then assessed visually using an overhead microscope (plaque multiplier from Technomara).
(§2) For this purpose, NHDF cells are seeded in tissue culture vessels. 5×10^3 cells per well are seeded in 96-well plates and infected with cell-free HCMV AD169 with an moi of 0.03. The infections are cultivated under substance pressure which corresponds to 10 times the IC50 of the substance. Preferably, 30-100 96-well plates inoculated as described are made up. […] Finally, viral stocks are produced as described above and frozen. Serial ten-fold dilution of the virus-infected cells or of the cell culture supernatant of the virus-infected cells is followed by determination of the titer on 24-well plates of confluent NHDF cells after vital staining with neutral red. Finally, the susceptibility to various substances (IC50 determination) is determined as described above.
(§3) The HCMVAD169 mutants selected as described above are grown in vitro on human embryonic prepuce fibroblasts (NHDF cells) under substance pressure (10×IC50 HCMVAD169). After infection of the NHDF cells with a multiplicity of infection (M.O.I) of 0.01, the virus-infected cells are harvested 5-10 days later, and the total DNA is isolated from these cells with the aid of established standard methods (e.g. phenol extraction and ethanol precipitation). Qiagen Sequencing Services (Qiagen, Hilden) determined, after amplification of the viral UL86 gene by PCR, the DNA sequence, which was then transcribed into protein sequence. Compared with the initial strain HCMV AD169, the differences shown in table 2 were detectable in the protein sequence of the major capsid protein (UL86) in the resistant viruses. The IC50 values [μM] of various substances on these mutants compared with the initial strain are likewise indicated. (n.d.=not measured). […] Depending on the nature of the substance, certain mutations lead to various extents of resistance.

[1] = test system: HCMV AD169 clone with mutation in UL86 R435C; experiment: Susceptibility (IC50) of resistant HCMV AD169 clone R435C; type: cell-based, Human cytomegalovirus; conditions: Human betaherpesvirus 5, read-out: IC 50, R435C
Description: as §1, §2, §3

[2] = test system: HCMV AD169 clone with mutation in UL86 D441N; experiment: Susceptibility (IC50) of resistant HCMV AD169 clone D441N; type: cell-based, Human cytomegalovirus; conditions: Human betaherpesvirus 5, read-out: IC 50, D441N
Description: as §1, §2, §3

[3] = test system: HCMV AD169 clone with mutation in UL86 D563N; experiment: Susceptibility (IC50) of resistant HCMV AD169 clone D563N; type: cell-based, Human cytomegalovirus; conditions: Human betaherpesvirus 5, read-out: IC 50, D563N
Description: as §1, §2, §3

[4] = test system: HCMV AD169 clone with mutation in UL86 P586T; experiment: Susceptibility (IC50) of resistant HCMV AD169 clone P586T; type: cell-based, Human cytomegalovirus; conditions: Human betaherpesvirus 5, read-out: IC 50, P586T
Description: as §1, §2, §3

[5] = test system: HCMV AD169 clone with mutation in UL86 V601M; experiment: Susceptibility (IC50) of resistant HCMV AD169 clone V601M; type: cell-based, Human cytomegalovirus; conditions: Human betaherpesvirus 5, read-out: IC 50, V601M
Description: as §1, §2, §3

[6] = test system: HCMV AD169 clone with mutation in UL86 R682H; experiment: Susceptibility (IC50) of resistant HCMV AD169 clone R682H; type: cell-based, Human cytomegalovirus; conditions: Human betaherpesvirus 5, read-out: IC 50, R682H
Description: as §1, §2, §3

[7] = test system: HCMV AD169 clone with mutation in UL86 A689T; experiment: Susceptibility (IC50) of resistant HCMV AD169 clone A689T; type: cell-based, Human cytomegalovirus; conditions: Human betaherpesvirus 5, read-out: IC 50, A689T
Description: as §1, §2, §3

[8] = test system: HCMV AD169 clone with mutation in UL86 P1189T; experiment: Susceptibility (IC50) of resistant HCMV AD169 clone P1189T; type: cell-based, Human cytomegalovirus; conditions: Human betaherpesvirus 5, read-out: IC 50, P1189T
Description: as §1, §2, §3

[9] = test system: HCMV AD169 clone with mutation in UL86 Q1223R; experiment: Susceptibility (IC50) of resistant HCMV AD169 clone Q1223R; type: cell-based, Human cytomegalovirus; conditions: Human betaherpesvirus 5, read-out: IC 50, Q1223R
Description: as §1, §2, §3

[10] = test system: HCMV AD169 clone with mutation in UL86 A1226T; experiment: Susceptibility (IC50) of resistant HCMV AD169 clone A1226T; type: cell-based, Human cytomegalovirus; conditions: Human betaherpesvirus 5, read-out: IC 50, A1226T
Description: as §1, §2, §3

[11] = test system: HCMV AD169 clone with mutation in UL86 E1320Q; experiment: Susceptibility (IC50) of resistant HCMV AD169 clone E1320Q; type: cell-based, Human cytomegalovirus; conditions: Human betaherpesvirus 5, read-out: IC 50, E1320Q
Description: as §1, §2, §3

[12] = test system: HCMV AD169 clone with mutation in UL86 K1338N; experiment: Susceptibility (IC50) of resistant HCMV AD169 clone K1338N; type: cell-based, Human cytomegalovirus; conditions: Human betaherpesvirus 5, read-out: IC 50, K1338N
Description: as §1, §2, §3

[13] = test system: Human cytomegalovirus (HCMV); experiment: Anti-HCMV cytopathogenicity test; type: cell-based; conditions: for IC50: Human betaherpesvirus 5, 144 h, NHDF cells, 6 days, cytopathogenic effect, read-out: IC50, antiviral activity in vitro; for SI (selectivity index): antiviral activity in vitro
Description: Human cytomegalovirus (HCMV), DavisSmith (ATCC VR807) or AD169 (ATCC VR538) strain, is grown in vitro on human embryonic prepuce fibroblasts (NHDF cells). After the NHDF cells have been infected with a multiplicity of infection (M.O.I.) of 0.01, the virus-infected cells are harvested 5-10 days later and stored in the presence of minimal essential medium (MEM), 10% fetal calf serum (FCS) with 10% DMSO at −80° C. A cell-free stock is produced by removing only the cell culture supernatant and immediately freezing at −80° C. After serial ten-fold dilutions of the virus-infected cells or of the cell culture supernatant of the virus-infected cells (cell-free virus), the titer is determined on 24-well plates of confluent NHDF cells after vital staining with neutral red.
as §1

Nc1nc(O)c2ncn(COC(CO)CO)c2n1 [Ganciclovir, reference compound]
IC50 (wild-type HCMV AD169): 1000 nM | IC50 [1]: 1000 nM | IC50 [2]: 1000 nM | IC50 [3]: 1000 nM | IC50 [4]: 1000 nM | IC50 [5]: 1000 nM | IC50 [6]: 1000 nM | IC50 [7]: 1000 nM | IC50 [8]: 1000 nM | IC50 [9]: 1000 nM | IC50 [10]: 1000 nM | IC50 [11]: 1000 nM | IC50 [12]: 1000 nM

Cc1cc(Cl)ccc1NC(=O)Nc1cccc(C2=NNC(=O)C2(C)C)c1 [Example 8, N-(4-Chloro-2-methylphenyl)-N′-[3-(4,4-dimethyl-5-oxo-4,5-dihydro-1H-pyrazol-3-yl)phenyl]urea]
IC50 [13]: 600 nM | SI (selectivity index) [13]: 30 | IC50 (wild-type HCMV AD169): 600 nM | IC50 [1]: 1300 nM | IC50 [3]: > 21000 nM | IC50 [4]: > 21000 nM | IC50 [5]: > 21000 nM | IC50 [7]: > 21000 nM | IC50 [9]: > 21000 nM | IC50 [11]: > 21000 nM | IC50 [12]: > 21000 nM | melting point: 226.8 °C

CC(=O)Nc1ccc(NC(=O)Nc2ccc(F)c(Cl)c2)cc1 [Example 3, N-[4-({[(3-Chloro-4-fluorophenyl)amino]carbonyl}amino)phenyl]acetamide]
IC50 [13]: 500 nM | SI (selectivity index) [13]: 40 | IC50 (wild-type HCMV AD169): 500 nM | IC50 [1]: > 20000 nM | IC50 [2]: > 20000 nM | IC50 [3]: > 20000 nM | IC50 [4]: > 20000 nM | IC50 [5]: > 20000 nM | IC50 [6]: > 20000 nM | IC50 [7]: > 20000 nM | IC50 [8]: > 20000 nM | IC50 [9]: > 20000 nM | IC50 [10]: > 20000 nM | IC50 [11]: > 20000 nM | IC50 [12]: > 20000 nM

O=C(Nc1cccc(-c2n[nH]c(=O)n2C2CCCCC2)c1)Nc1ccc(F)c(Cl)c1 [Example 7, 1-(3-Chloro-4-fluorophenyl)-3-[3-(4-cyclohexyl-5-oxo-4,5-dihydro-1H-[1,2,4]triazol-3-yl)phenyl]urea]
IC50 [13]: 1500 nM | SI (selectivity index) [13]: 30 | IC50 (wild-type HCMV AD169): 1500 nM | IC50 [1]: 3000 nM | IC50 [3]: 15000 nM | IC50 [4]: 7600 nM | IC50 [5]: 12000 nM | IC50 [7]: 4500 nM | IC50 [9]: 12000 nM | IC50 [11]: 24000 nM | IC50 [12]: 15000 nM

CC(C)n1c(-c2cccc(NC(=O)Nc3ccc(F)c(Cl)c3)c2)n[nH]c1=O [Example 6, 1-(3-Chloro-4-fluorophenyl)-3-[3-(4-isopropyl-5-oxo-4,5-dihydro-1H-[1,2,4]triazol-3-yl)phenyl]urea]
IC50 [13]: 400 nM | SI (selectivity index) [13]: 150

CCCCS(=O)(=O)Nc1cccc(NC(=O)Nc2ccc(F)c(Cl)c2)c1 [Example 5, N-[3-({[(3-Chloro-4-fluorophenyl)amino]carbonyl}amino)phenyl]-1-butanesulfonamide]
IC50 [13]: 140 nM | SI (selectivity index) [13]: 70 | IC50 (wild-type HCMV AD169): 140 nM | IC50 [1]: 6000 nM | IC50 [3]: 1400 nM | IC50 [4]: 800 nM | IC50 [5]: 1500 nM | IC50 [7]: 400 nM | IC50 [9]: 1400 nM | IC50 [11]: 9000 nM | IC50 [12]: > 9000 nM
